How the values were obtained:
hDHODH = biological target: T1, hDHODH (Homo sapiens, UniProt Q02127); test: hDHODH enzyme inhibition assay (DCIP/UQ0, dihydroorotate-initiated); format: biochemical; details: for inhibition at 10 µM: compound at 10 µM, 10 nM purified hDHODH; for IC50: three independent tests, determined if inhibition at 10 μM was greater than 50%;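 for all read-outs here: recombinant hDHODH (Met30–Arg396) in HEPES pH 8.0 buffer with KCl and Triton X-100, reaction started by 500 µM dihydroorotate, inhibition from rate with inhibitor relative to uninhibited rate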
T1 construct: The plasmid pET-19b–hDHODH (Met30-Arg396) was transformed; inferred from the pET-19b vector and from purification on a chelating column with imidazole elution) (N); made in house; host or cells: E. coli BL21 (DE3)
T1 sequence (Q02127 29-395 limits assumed): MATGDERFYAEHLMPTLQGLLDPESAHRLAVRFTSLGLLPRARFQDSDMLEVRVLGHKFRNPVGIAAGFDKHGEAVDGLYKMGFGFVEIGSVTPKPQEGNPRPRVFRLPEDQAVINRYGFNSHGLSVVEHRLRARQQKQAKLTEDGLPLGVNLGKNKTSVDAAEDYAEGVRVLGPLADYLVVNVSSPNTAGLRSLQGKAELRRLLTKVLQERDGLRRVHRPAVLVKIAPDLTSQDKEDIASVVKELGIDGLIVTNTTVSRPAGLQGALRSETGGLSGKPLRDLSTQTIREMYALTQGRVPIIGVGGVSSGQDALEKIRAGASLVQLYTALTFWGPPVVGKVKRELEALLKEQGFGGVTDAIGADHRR
Experimental: The purified hDHODH was diluted into a final concentration of 10 nM with the assay buffer contained 50 mM HEPES pH 8.0, 150 mM KCl, 0.1% Triton X-100. […] The dihydroorotate was added to a final concentration of 500 μM to initiate the reaction. […] Inhibition rate was calculated from (1-Vi/V0) × 100. For the determination of the IC50 values, eight to nine different concentrations were applied. Each inhibitor concentration point was tested in triplicate. IC50 values were calculated using the sigmoidal fitting option of the program Origin 8.0.

| inhibition at 10 µM (hDHODH) [%] | IC50 (hDHODH) [µM] | melting point [°C] | hDHODH inhibitory activity in words (hDHODH) | SMILES |
| --- | --- | --- | --- | --- |
| 63.3 | 5.42 |  |  | COC(=O)/C(C#N)=C1\SCC(=O)N1c1ccc(-c2cccc(OC)c2)cc1F [Compound 14, Methyl (Z)-2-cyano-2-(3-(3-fluoro-3’-methoxy-[1,1’-biphenyl]-4-yl)-4-oxothiazolidin-2-ylidene)acetate] |
| 52.7 | 7.5 | 280.1 to 280.9 |  | COC(=O)/C(C#N)=C1\SCC(=O)N1c1ccc(C(=O)Nc2ccc(Cl)cc2)cc1 [Compound 32, Methyl (Z)-2-(3-(4-((4-chlorophenyl)carbamoyl)phenyl)-4-oxothiazolidin-2-ylidene)-2-cyanoacetate] |
| 34.4 | > 10 | 183.4 to 184.3 | inactive | COC(=O)/C(C#N)=C1\SCC(=O)N1c1cccc(Oc2ccccc2)c1 [Compound 23, Methyl (Z)-2-cyano-2-(4-oxo-3-(3-phenoxyphenyl)thiazolidin-2-ylidene)acetate] |
| 24.5 | > 10 | 264.2 to 265.1 |  | COC(=O)/C(C#N)=C1\SCC(=O)N1c1ccc(C(=O)Nc2ccc(C(F)(F)F)cc2)cc1 [Compound 35, Methyl (Z)-2-cyano-2-(4-oxo-3-(4-((4-(trifluoromethyl)phenyl)carbamoyl)phenyl)thiazolidin-2-ylidene) acetate] |
| 50.2 | 8.39 | 191.2 to 191.3 |  | COC(=O)/C(C#N)=C1\SCC(=O)N1c1ccc(-c2cccc(C#N)c2)cc1F [Compound 16, Methyl (Z)-2-cyano-2-(3-(3’-cyano-3-fluoro-[1,1’-biphenyl]-4-yl)-4-oxothiazolidin-2-ylidene)acetate] |
| 29.9 | > 10 |  |  | COC(=O)/C(C#N)=C1\SCC(=O)N1c1ccc(OCc2ccccc2C(=O)O)cc1 [Compound 25, (Z)-2-((4-(2-(1-Cyano-2-methoxy-2-oxoethylidene)-4-oxothiazolidin-3-yl)phenoxy)methyl)benzoic acid] |
| 53.6 | 8.56 | 264.2 to 265.1 |  | COC(=O)/C(C#N)=C1\SCC(=O)N1c1ccc(C(=O)Nc2ccc(F)c(C#N)c2)cc1 [Compound 31, Methyl (Z)-2-cyano-2-(3-(4-((3-cyano-4-fluorophenyl)carbamoyl)phenyl)-4-oxothiazolidin-2-ylidene)acetate] |
| 52 | 9.43 |  |  | COC(=O)/C(C#N)=C1\SCC(=O)N1c1ccc(Oc2ccccc2)cc1 [Compound 19, Methyl (Z)-2-cyano-2-(4-oxo-3-(4-phenoxyphenyl)thiazolidin-2-ylidene)acetate] |
| 55.4 | 4.32 |  |  | COC(=O)/C(C#N)=C1\SCC(=O)N1c1ccc(OCc2ccccc2)cc1 [Compound 24, Methyl (Z)-2-(3-(4-(benzyloxy)phenyl)-4-oxothiazolidin-2-ylidene)-2-cyanoacetate] |
| 50.7 | 4.35 | 179.2 to 179.9 |  | COC(=O)/C(C#N)=C1\SCC(=O)N1c1ccc(-c2cccc([N+](=O)[O-])c2)cc1F [Compound 17, Methyl (Z)-2-cyano-2-(3-(3-fluoro-3’-nitro-[1,1’-biphenyl]-4-yl)-4-oxothiazolidin-2-ylidene) acetate] |
| 33.9 | > 10 |  |  | COC(=O)/C(C#N)=C1\SCC(=O)N1c1c(F)cc(-c2ccccc2)cc1F [Compound 11, Methyl (Z)-2-cyano-2-(3-(3,5-difluoro-[1,1’-biphenyl]-4-yl)-4-oxothiazolidin-2-ylidene)acetate] |
| 53.1 | 9.29 |  |  | COC(=O)/C(C#N)=C1\SCC(=O)N1c1ccc(-c2cccc(C(F)(F)F)c2)cc1F [Compound 18, Methyl (Z)-2-cyano-2-(3-(3-fluoro-3’-(trifluoromethyl)-[1,1’-biphenyl]-4-yl)-4-oxothiazolidin-2-ylidene) -acetate] |
| 42 | > 10 | 306.2 to 307.1 |  | COC(=O)/C(C#N)=C1\SCC(=O)N1c1ccc(C(=O)Nc2ccc(Br)cc2)cc1 [Compound 33, Methyl (Z)-2-(3-(4-((4-bromophenyl)carbamoyl)phenyl)-4-oxothiazolidin-2-ylidene)-2-cyanoacetate] |
| 73.8 | 1.32 |  |  | COC(=O)/C(C#N)=C1\SCC(=O)N1c1ccc(-c2ccccc2)cc1 [Compound 9, Methyl (Z)-2-(3-([1,1’-biphenyl]-4-yl)-4-oxothiazolidin-2-ylidene)-2-cyanoacetate] |
| 23.5 | > 10 | 205.7 to 206.6 |  | COC(=O)/C(C#N)=C1\SCC(=O)N1c1ccc(C(=O)Nc2cccc(C(=O)O)c2)cc1 [Compound 41, (Z)-3-(4-(2-(1-Cyano-2-methoxy-2-oxoethylidene)-4-oxothiazolidin-3-yl)benzamido)benzoic acid] |
| 54.7 | 6.64 |  |  | COC(=O)/C(C#N)=C1\SCC(=O)N1c1ccc(-c2ccccc2OC)cc1F [Compound 13, Methyl (Z)-2-cyano-2-(3-(3-fluoro-2’-methoxy-[1,1’-biphenyl]-4-yl)-4-oxothiazolidin-2-ylidene)acetate] |

| inhibition at 10 µM (hDHODH) [%] | IC50 (hDHODH) [µM] | melting point [°C] | hDHODH inhibitory activity in words (hDHODH) | SMILES |
| --- | --- | --- | --- | --- |
| 41.7 | > 10 |  |  | COC(=O)/C(C#N)=C1\SCC(=O)N1c1ccc(C(=O)NC2CCCCC2)cc1 [Compound 27, Methyl (Z)-2-cyano-2-(3-(4-(cyclohexylcarbamoyl)phenyl)-4-oxothiazolidin-2-ylidene)acetate] |
| 42.2 | > 10 | 275 to 275.8 |  | COC(=O)/C(C#N)=C1\SCC(=O)N1c1ccc(C(=O)Nc2ccc3c(C(C)=O)cccc3c2)cc1 [Compound 45, Methyl (Z)-2-(3-(4-((5-acetylnaphthalen-2-yl)carbamoyl)phenyl)-4-oxothiazolidin-2-ylidene)-2-cyanoacetate] |
| 30.3 | > 10 | 328.1 to 328.9 |  | COC(=O)/C(C#N)=C1\SCC(=O)N1c1ccc(C(=O)Nc2ccc(C(C)(C)C)c(C(=O)O)c2)cc1 [Compound 44, (Z)-2-(tert-butyl)-5-(4-(2-(1-cyano-2-methoxy-2-oxoethylidene)-4-oxothiazolidin-3-yl)benzamido)benzoic acid] |
| 34.5 | > 10 | 261.8 to 262.5 |  | COC(=O)/C(C#N)=C1\SCC(=O)N1c1ccc(C(=O)Nc2ccccc2C(=O)O)cc1 [Compound 40, (Z)-2-(4-(2-(1-Cyano-2-methoxy-2-oxoethylidene)-4-oxothiazolidin-3-yl)benzamido)benzoic acid] |
| 69 | 2.98 | 194.9 to 195.6 |  | COC(=O)/C(C#N)=C1\SCC(=O)N1c1ccc(C(=O)Nc2ccccc2)cc1 [Compound 28, Methyl (Z)-2-cyano-2-(4-oxo-3-(4-(phenylcarbamoyl)phenyl)thiazolidin-2-ylidene)acetate] |
| 18.1 | > 10 | 212.9 to 213.9 |  | COC(=O)/C(C#N)=C1\SCC(=O)N1c1ccc(Oc2ccc(C(C)(C)C)cc2)cc1 [Compound 22, Methyl (Z)-2-(3-(4-(4-(tert-butyl)phenoxy)phenyl)-4-oxothiazolidin-2-ylidene)-2-cyanoacetate] |
| 55.4 | 6.86 | 177.1 to 177.3 |  | COC(=O)/C(C#N)=C1\SCC(=O)N1c1ccc(-c2ccc(OC)cc2)cc1F [Compound 15, Methyl (Z)-2-cyano-2-(3-(3-fluoro-4’-methoxy-[1,1’-biphenyl]-4-yl)-4-oxothiazolidin-2-ylidene)acetate] |
| 57.6 | 6.04 |  |  | COC(=O)/C(C#N)=C1\SCC(=O)N1c1ccc(-c2ccccc2C)cc1F [Compound 12, Methyl (Z)-2-cyano-2-(3-(3-fluoro-2’-methyl-[1,1’-biphenyl]-4-yl)-4-oxothiazolidin-2-ylidene)acetate] |
| 39.9 | > 10 | 117.3 to 118.1 | inactive | COC(=O)/C(C#N)=C1\SCC(=O)N1c1ccc(C(=O)NCc2ccccc2)cc1 [Compound 39, Methyl (Z)-2-(3-(4-(benzylcarbamoyl)phenyl)-4-oxothiazolidin-2-ylidene)-2-cyanoacetate] |
| 38.1 | > 10 | 315.8 to 316.6 |  | COC(=O)/C(C#N)=C1\SCC(=O)N1c1ccc(C(=O)Nc2ccc(I)cc2)cc1 [Compound 34, Methyl (Z)-2-cyano-2-(3-(4-((4-iodophenyl)carbamoyl)phenyl)-4-oxothiazolidin-2-ylidene)acetate] |
| 36.8 | > 10 | 217.3 to 218.1 |  | COC(=O)/C(C#N)=C1\SCC(=O)N1c1ccc(C(=O)NCc2ccccc2C(=O)O)cc1 [Compound 42, (Z)-2-((4-(2-(1-cyano-2-methoxy-2-oxoethylidene)-4-oxothiazolidin-3-yl)benzamido)methyl)-benzoic acid] |
| 75.6 | 1.45 | 256.1 to 257 |  | COC(=O)/C(C#N)=C1\SCC(=O)N1c1ccc(C(=O)Nc2ccc(C(C)(C)C)cc2)cc1 [Compound 37, Methyl (Z)-2-(3-(4-((4-(tert-butyl)phenyl)carbamoyl)phenyl)-4-oxothiazolidin-2-ylidene)-2-cyanoacetate] |
| 80.3 | 1.12 |  |  | COC(=O)/C(C#N)=C1\SCC(=O)N1c1ccc2ccccc2c1 [Compound 8] |
| 58.8 | 3.52 |  |  | COC(=O)/C(C#N)=C1\SCC(=O)N1c1ccc(-c2ccccc2)cc1F [Compound 10, Methyl (Z)-2-cyano-2-(3-(3-fluoro-[1,1’-biphenyl]-4-yl)-4-oxothiazolidin-2-ylidene)acetate] |
| 79.1 | 1.75 |  |  | COC(=O)/C(C#N)=C1\SCC(=O)N1c1ccc(C(C)(C)C)cc1 [Compound 7] |

Source: PMC6696179, “Structural Optimization and Structure–Activity Relationship of 4-Thiazolidinone Derivatives as Novel Inhibitors of Human Dihydroorotate Dehydrogenase” (Molecules, 2019)
